The record followed here is PubChem BioAssay (NCI).

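Assay format: 96-well plates, 48-hour exposure. GI50: concentration for 50% inhibition of growth. TGI: concentration producing complete growth inhibition.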

Assay in all cases: NCI anticancer screen, dose series, 48 h
Assay [1] concerns M14 melanoma.
The subject of assay [2] is UACC-62 melanoma.
Assay [3] has as its system SK-MEL-2 melanoma.
The test system of assay [4] is HT29 colon.
Assay [5] concerns EKVX NSCLC.
Assay [6] relates to CCRF-CEM leukemia.
Assay [7] relates to NCI-H226 lung.
The test system of assay [8] is OVCAR-5 ovarian.
Assay [9] deals with HCT-15 colon.
The subject of assay [10] is TK-10 renal.

In the case of `C=C1C(=O)O[C@H]2[C@H]1CC/C(Cn1cc(-c3cc(C(F)(F)F)cc(C(F)(F)F)c3)nn1)=C\CC[C@@]1(C)O[C@@H]21`, the GI50 in assay [1] is 357 nM; in assay [2], 344 nM; in [3] it was 348 nM; in [4] it was 190 nM; in assay [5], 1500 nM; in assay [6] it was 169 nM. Moreover, the figures for the GI50 in [7], in assay [8] and in [9] were 1650 nM, 1100 nM and 191 nM, respectively. Also, the TGI in assay [1] turned out to be 1.55 µM; in assay [2], 1.38 µM; in assay [3], 1.49 µM; in [4] it was 0.486 µM; in assay [5], 2.95 µM; in assay [6] it was 0.821 µM. In addition, the TGI in [7] was found to be 3.56 µM; in assay [8] it was 2.48 µM; in assay [9] it was 0.454 µM.
On to `COC(=O)C(=O)OC1(C(C)=O)CC2(c3ccccc3)OC1(c1ccccc1)c1ccccc12` (centres undefined), for which the TGI was 31.9 µM in assay [1]; 28.1 µM in assay [2]; 30.7 µM in assay [4]; 70.6 µM in assay [10]; 42 µM in [5]; above 100 µM in [6]. Further, the TGI in assay [7] stood at 31.7 µM; in [8], 63 µM; in assay [9], 34.1 µM.
Turning to `CCOc1ccccc1NC(=O)CC1SC(=Nc2ccc([N+](=O)[O-])cc2)NC1=O` (centres undefined), the TGI in assay [1] is 50.9 µM; in assay [2] it was 39.9 µM; in assay [3] it was 41.5 µM; in [4], 50.6 µM; in assay [10], 70.2 µM; in assay [5], 72.3 µM. For the same compound, the TGI in assay [6] was found to be 54.3 µM; in assay [7] it was 41.8 µM; in assay [8], 78.7 µM.
Take `O=c1c2ccccc2n(C[C@H]2CO2)c2ccccc12`: the GI50 in assay [1] was 1670 nM; in assay [2] it was 1590 nM; in [3], 1960 nM; in [4], 2240 nM; in [10], 2340 nM; in assay [5] it was 2560 nM. Besides, the values for the GI50 in [6], in [8] and in [9] were 771 nM, 2440 nM and 1680 nM, respectively. Also, the TGI in [1] came out at 3.9 µM; in assay [2] it was 3.11 µM; in assay [3], 3.83 µM; in assay [4] it was 7.91 µM; in [10], 6.77 µM; in assay [5] it was 6.44 µM. Besides, the values for the TGI in assay [6], in assay [8] and in [9] were 21.7 µM, 6.41 µM and 5.27 µM, respectively.
With `COC(=O)C1=C(C(=O)ON)C2C=CC1(C(Cc1ccccc1)Nc1ccccc1)O2` (centres undefined), the GI50 in assay [2] was 2240 nM; in assay [3] it was 11600 nM; in assay [4], 1790 nM; in assay [10], 1710 nM; in assay [5], 1750 nM; in assay [6], 2230 nM. Besides, the GI50 was 12800 nM in [7], 3270 nM in assay [8] and 1730 nM in assay [9]. For the same compound, the TGI came out at 6.66 µM in assay [2]; 24.4 µM in [3]; 3.42 µM in assay [4]; 3.08 µM in assay [10]; 3.51 µM in [5]; 16.9 µM in [6]. For the same compound, the TGI came out at 25.6 µM in [7], 12.1 µM in assay [8] and 3.5 µM in assay [9].
For `COc1cccc(NC(=O)/C(CC(=O)CC(c2ccccc2)c2c(O)c3ccccc3oc2=O)=N\NC(C)(C)C)c1OC` (centres undefined), the TGI in assay [1], in assay [2], in assay [3], in [10], in assay [5] and in [6] was above 100 µM each time. The TGI in assay [8] and in assay [9] was above 100 µM each time.
In the case of `COc1cc(-c2nn(-c3cccc(NC(=O)Nc4cc(C(F)(F)F)cc(C(F)(F)F)c4)c3)cc2-c2ccncc2)ccc1Cl`, the GI50 in assay [1] was 826 nM; in assay [2] it was 496 nM; in assay [3], 1010 nM; in assay [4], 619 nM; in assay [10], 719 nM; in assay [6] it was 498 nM. Moreover, the figures for the GI50 in [7], in assay [8] and in assay [9] were 1140 nM, 1090 nM and 756 nM, respectively. The TGI was 4.68 µM in [1]; 1.5 µM in assay [2]; 2.04 µM in assay [3]; 1.68 µM in [4]; 2.46 µM in assay [10]; 2.79 µM in [6]. Also, the TGI was determined as 11.7 µM in [7], 3.54 µM in assay [8] and 2.97 µM in assay [9].
Consider `CCc1c(C#N)c(S[C@@H](C(N)=O)c2ccccc2)nc(N(C)C)c1C#N`, for which the GI50 in assay [1] is above 100000 nM; in [3], above 100000 nM; in [4], above 100000 nM; in [10] it was 21900 nM; in [5], 7930 nM; in assay [6], above 100000 nM. For the same compound, the figures for the GI50 in assay [7], in [8] and in assay [9] were 4760 nM, above 100000 nM and above 100000 nM, respectively. For the same compound, the TGI in [1] is above 100 µM; in [3] it was above 100 µM; in assay [4], above 100 µM; in [10], 80.4 µM; in assay [5], above 100 µM; in [6] it was above 100 µM. The TGI in assay [7], in assay [8] and in [9] was above 100 µM each time.
On to `O=C1C(Cl)=C(Nc2cccc(Cl)c2)C(=O)N1Cc1ccccc1Cl`, for which the GI50 in assay [1] was 4410 nM; in assay [2] it was 3050 nM; in assay [3], 4330 nM; in assay [4] it was 5450 nM; in assay [10] it was 12100 nM; in assay [5], 20200 nM. Also, the GI50 in [6] was 457 nM; in [7], 296 nM; in assay [9], 3960 nM. Also, the TGI in [1] was 19.4 µM; in assay [2], 12.8 µM; in assay [3], 23.1 µM; in assay [4], above 100 µM; in assay [10], 30 µM; in assay [5] it was 50.9 µM. In addition, the TGI in assay [6] is above 100 µM; in assay [7] it was 2.9 µM; in [9], 38.2 µM.
